Measured values as given in EP0572662B1, “SILVER HALIDE PHOTOGRAPHIC MATERIAL” (FUJI PHOTO FILM CO., LTD., priority 1991, dated 1993).

Assay: Speed of silver telluride formation in a silver halide emulsion (Kubelka-Munk reflectivity test)
Format: physicochemical
Settings: octahedral silver bromide emulsion, 50°C, pH 6.3, pAg 8.3, telluride 1 × 10^-3 mol/mol Ag, reflectivity at 520 nm
Experimental: The speed with which silver telluride is formed in the silver halide emulsion can be determined by the following test.
When a tellurium sensitizer is added in a great amount (e.g., 1 × 10^-3 mol/mol Ag), the silver telluride formed absorbs light beam of the visible region. […] 181 (1966) and ibid., Vol. 16, p. 102 (1968) can be applied for sulfur sensitizers. Therefore, the relative speed at which silver telluride is formed can easily be obtained by the same method as used in determining the amount of silver sulfide formed in a silver halide emulsion from the infinite reflectivity of the emulsion to visible light beams (520 nm) in accordance the Kubelka-Munk formula. […]
An emulsion which contains octahedral silver bromide grains having an average size of 0.5 µm (containing 0.75 mol of AgBr and 80 g of gelatin per kilogram) is maintained at 50°C, while holding pH and pAg at 6.3 and 8.3, respectively. […] Then, the reflectivity (R) of the emulsion to light beams of 520 nm is detected at times by means of a spectrophotometer having an integrating sphere, using the reflectivity of a blank emulsion as reference. Every reflectivity, thus detected, is substituted in the Kubelka-Munk formula, (1-R)^2/2R. The time spend until the value of (1-R)^2/2R becomes 0.01 is measured. The pseudo-first-order reaction rate constant k (min-1) is determined from the time thus measured. […]

Row | Structure (SMILES) | pseudo-first-order reaction rate constant k [min⁻¹]
1 | CC(C)CP(=[Te])(CC(C)C)CC(C)C [Compound 7, ((i)C4H9)3P = Te] | ~0.004
2 | CC(C)P(=[Te])(C(C)C)C(C)C [Compound 4, ((i)C3H7)3P = Te] | ~7e-05
